Source: US7205436B2, “Process for manufacture of quaternary ammonium tosylate salts of cinnamidoalkylamines and / or benzamidoalkylamines” (Galaxy Surfactants Limited, priority 2003, dated 2007)

Assay: UV absorption: molar extinction coefficient in methanol
Assay type: physicochemical
Settings: at λmax 310 nm in methanol

Structure (SMILES): CCCCCCCCCCCC[N+](C)(C)CCCNC(=O)C=Cc1ccc(OC)cc1.Cc1ccc(S(=O)(=O)[O-])cc1 [Example I, p-methoxy cinnamidopropyldimethyllauryl ammonium tosylate]
- molar extinction coefficient, ε: 25,000
